# The source made the active and inactive calls. No cut-off for these calls is given here.
# Experiments:
# [1] = Inhibition of invasion of mouse 26-L5 cells; type: functional
# [2] = species: Mus musculus; assay: Growth inhibition of mouse 26-L5 cells at 3 ug/ml by WST1 method; type: functional
IC50 [1] [µM],Structure (SMILES),Activity [2]
0.21,Cc1c(O)c(CCC(C)C)c2c(c1O)C(=O)c1cccc(O)c1C2=O [LUPINACIDIN A],Active
0.92,CCCCc1c(O)c(C)c(O)c2c1C(=O)c1c(O)cccc1C2=O [LUPINACIDIN B],inactive
